Columns and labels:
[1] = system: antibodies to the polypeptides of the invention; assay: Follow-up of antibody titer (ELISA based on the polypeptide) and DAS score in treated RA patients; assay type: in vivo, human; settings: for alteration in the DAS score due to treatment: severe rheumatoid arthritis (average DAS score of 4.9); for antibody titers, fraction of the starting value: patients with low disease activity (average DAS 2.8), in the course of 1-2 years, on average
Description: Patients having low disease activity (average DAS score of 2.8) were identified by an ELISA based on the polypeptide of the invention (<300 U/ml on average). Correlating with the success of treatment (DAS score less than 1.5 after treatment) with sulfasalazine or cortisone, the antibody titers were reduced to, on average, ⅙ of the starting value in the course of 1-2 years.
Patients suffering from severe rheumatoid arthritis (average DAS score of 4.9) had, on average, an antibody titer of >1000 U/ml. […] In parallel with the altered antibody titer, patients reported during anamnesis a substantially more positive overall evaluation of their subjective situation regarding the disease, i.e. the diagnostic agent of the invention is also suitable for quality control of the therapy of a severe rheumatoid arthritis.

[2] = biological target: T1, antibody binding to mutated vimentin (Homo sapiens, UniProt P08670, A54Y/A67Y/G16R/G41R/G59R/G76R/P18T/P24T/P46T/P75T/R78S); assay: Blocking of antibody binding to mutated vimentin in vitro (ELISA, RA sera)
T1 construct: His-tag; made in house; host or cells: E. coli
T1 sequence (P08670 whole entry G16R/P18T/P24T/G41R/P46T/A54Y/G59R/A67Y/P75T/G76R/R78S): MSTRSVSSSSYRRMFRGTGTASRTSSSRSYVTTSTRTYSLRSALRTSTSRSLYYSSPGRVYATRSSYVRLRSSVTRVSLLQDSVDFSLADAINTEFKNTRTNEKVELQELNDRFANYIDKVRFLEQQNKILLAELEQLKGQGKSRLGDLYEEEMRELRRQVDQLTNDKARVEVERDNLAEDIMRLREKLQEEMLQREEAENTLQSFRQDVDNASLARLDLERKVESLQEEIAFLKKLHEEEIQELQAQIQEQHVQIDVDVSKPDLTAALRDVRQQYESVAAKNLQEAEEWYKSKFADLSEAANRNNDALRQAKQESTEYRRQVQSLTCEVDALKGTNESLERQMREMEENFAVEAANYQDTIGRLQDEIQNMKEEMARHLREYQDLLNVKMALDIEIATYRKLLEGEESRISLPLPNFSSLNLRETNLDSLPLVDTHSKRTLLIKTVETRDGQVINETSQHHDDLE
Experimental: To prepare an extract from green tea, 5 g of any commercially available tea were covered with 10 ml of 80% DMSO and stirred overnight. The solution was centrifuged at 13 000 rpm for 10. min and defined as tea extract. In contrast to the above solid substances 1, 2 and 4-6, 10 μl/ml tea extract of this preparation were employed. Antibody binding in the presence and absence of substances was analyzed in an ELISA for which microtiter plates were prepared analogously to Example 2. Different sera of RA patients were used in dilutions of from 1:100 to 1:400. Blocking of antibody binding was induced by preincubating 100 μl of the diluted serum with the substances or tea solutions indicated for 10 min. Subsequently, the remaining crossreaction was analyzed by transferring the 100 μl of serum-substance mixture to the cavities of said microtiter plate. According to the procedure of a classical ELISA, the bound antibodies were detected by means of a HRP-conjugated anti-human IgG. FIG. 3 depicts by way of example the results obtained using patient serum No. 400725.

vimentin = vimentin (Homo sapiens, UniProt P08670); settings: Ermakova et al. 2005; cited from earlier work
Chain of vimentin (P08670 whole entry, species assumed): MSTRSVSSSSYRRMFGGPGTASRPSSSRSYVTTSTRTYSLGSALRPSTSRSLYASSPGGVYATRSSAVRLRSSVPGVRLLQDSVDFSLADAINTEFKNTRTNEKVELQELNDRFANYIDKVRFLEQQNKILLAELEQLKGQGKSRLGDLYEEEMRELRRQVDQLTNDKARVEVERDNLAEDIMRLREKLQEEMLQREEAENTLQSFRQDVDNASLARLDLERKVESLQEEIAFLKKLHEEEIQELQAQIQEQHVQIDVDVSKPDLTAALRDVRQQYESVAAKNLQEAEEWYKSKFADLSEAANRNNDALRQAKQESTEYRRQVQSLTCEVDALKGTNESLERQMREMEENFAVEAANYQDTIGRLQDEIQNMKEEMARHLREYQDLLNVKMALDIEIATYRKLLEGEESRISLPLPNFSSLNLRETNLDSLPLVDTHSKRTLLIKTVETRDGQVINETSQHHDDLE

[3] = Oral administration of freeze-dried tea extract to rats, plasma analysis by HPLC and GC/MS; assay type: in vivo
Description: Therefore the tea extracts prepared by us (see Example 7) were freeze-dried and reconstituted with cocoa oil or salmon oil. After oral administration of an extract prepared from 5 g of green tea (5 g/kg of body weight) to rats, blood was taken every half hour and analyzed by means of HPLC and GC/MS.

[4] = extract from 5 g green tea (5 g/kg of body weight)

CN(Cc1cnc2nc(N)nc(N)c2n1)c1ccc(C(=O)N[C@@H](CCC(=O)O)C(=O)O)cc1 [methotrexate]
alteration in the DAS score due to treatment [1]: no significant alteration

Oc1cc(O)c2c(c1)O[C@H](c1ccc(O)c(O)c1)[C@H](O)C2 [EC, Epicatechin]
blocking of antibody binding ([2]; competition experiments, maximum): ≤ 10%

O=C(O)c1cc(/N=N/c2ccc(S(=O)(=O)Nc3ccccn3)cc2)ccc1O [sulfasalazine]
antibody titers, fraction of the starting value [1]: ⅙

C[C@]12CCC(=O)C=C1CC[C@@H]1[C@@H]2C(=O)C[C@@]2(C)[C@H]1CC[C@]2(O)C(=O)CO [cortisone]
antibody titers, fraction of the starting value [1]: ⅙

O=C(O[C@@H]1Cc2c(O)cc(O)cc2O[C@@H]1c1cc(O)c(O)c(O)c1)c1cc(O)c(O)c(O)c1 [EGCG, Epigallocatechin gallate]
binding to vimentin (vimentin): binds to vimentin
blocking of formation of autoimmune complexes of autoantibodies to mutated vimentin [2]: blocked in a concentration-dependent manner
blocking of antibody binding ([2]; concentration of 10-100 μg/ml): no more than 45%
maximum plasma concentration for EGCG (content of 50% in the extract) [3, 4]: about 245 μg/ml
maximum plasma concentration of EC and EGCG (5-13% of the extract mass) [3, 4]: 75 µg/mL
time of maximum plasma concentration after intake ([3]; extract from 5 g green tea (5 g/kg of body weight) in cocoa oil or salmon oil): About 2 hours

Remicade: marketed drug used to treat severe rheumatoid arthritis
alteration in the DAS score due to treatment [1]: no significant alteration
